Experiments:
Format in all cases: in vivo
[1] = tested on: wheat (Triticum aestivum); experiment: Test A postemergence application, visual injury rating 0-100
Outline: (§1)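 Visual injury ratings (0, no effect; 100, complete control) were assigned relative to untreated plants 10 days after treatment. Test chemicals, formulated with a surfactant-containing non-phytotoxic solvent, were applied in loam-sand soil either as a directed soil spray before emergence or to emerged plants, and plants were kept in a greenhouse.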

[2] = tested on: blackgrass (Alopecurus myosuroides); experiment: as above
Outline: as §1

[3] = tested on: galium (catchweed bedstraw, Galium aparine); experiment: as above
Outline: as §1

[4] = tested on: ryegrass, Italian (italian ryegrass, Lolium multiflorum); experiment: as above
Outline: as §1

[5] = tested on: horseweed (Erigeron canadensis); experiment: as above
Outline: as §1

[6] = tested on: green foxtail (Setaria viridis); experiment: as above
Outline: as §1

[7] = tested on: oat, wild (wild oat, Avena fatua); experiment: as above
Outline: as §1

[8] = tested on: ragweed (common ragweed, Ambrosia artemisiifolia); experiment: as above
Outline: as §1

[9] = tested on: palmer (palmer amaranth, palmer pigweed, Amaranthus palmeri); experiment: as above
Outline: as §1

soybean (Glycine max) [10] = experiment: as above
Outline: as §1

corn (Zea mays) [11] = experiment: as above
Outline: as §1

[12] = tested on: barnyardgrass (Echinochloa crus-galli); experiment: as above
Outline: as §1

kochia (Bassia scoparia) [13] = experiment: as above
Outline: as §1

[14] = tested on: sedge, umbrella (small-flower umbrella sedge, Cyperus difformis); experiment: Test B flooded paddy test, visual plant response rating 0-100; settings: 250 g ai/ha, Flood, applied to paddy water, evaluated after 13 days
Outline: (§2)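 Visual scores versus untreated controls were recorded 13 days after treatment of greenhouse-held plants. At the 2-leaf stage, pots were flooded 3 cm above the soil surface and compounds added straight to the water.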

[15] = tested on: ducksalad (Heteranthera limosa); experiment: as above; settings: 250 g ai/ha, Flood, applied to paddy water, evaluated after 13 days
Outline: as §2

[16] = tested on: barnyardgrass (Echinochloa crusgalli); experiment: as above; settings: 250 g ai/ha, Flood, applied to paddy water, evaluated after 13 days
Outline: as §2

rice (Oryza sativa) = experiment: as above; settings: 250 g ai/ha, Flood, applied to paddy water, evaluated after 13 days
Outline: as §2

[17] = tested on: wheat (Triticum aestivum); experiment: Test A preemergence soil spray, visual injury rating 0-100; settings: 10 days
Outline: as §1

[18] = tested on: blackgrass (Alopecurus myosuroides); experiment: as above; settings: 10 days
Outline: as §1

[19] = tested on: ryegrass, Italian (italian ryegrass, Lolium multiflorum); experiment: as above; settings: 10 days
Outline: as §1

[20] = tested on: green foxtail (Setaria viridis); experiment: as above; settings: 10 days
Outline: as §1

[21] = tested on: oat, wild (wild oat, Avena fatua); experiment: as above; settings: 10 days
Outline: as §1

[22] = tested on: ragweed (common ragweed, Ambrosia artemisiifolia); experiment: as above; settings: 10 days
Outline: as §1

[23] = tested on: palmer (palmer amaranth, palmer pigweed, Amaranthus palmeri); experiment: as above; settings: 10 days
Outline: as §1

soybean (Glycine max) [24] = experiment: as above; settings: 10 days
Outline: as §1

corn (Zea mays) [25] = experiment: as above; settings: 10 days
Outline: as §1

[26] = tested on: barnyardgrass (Echinochloa crus-galli); experiment: as above; settings: 10 days
Outline: as §1

kochia (Bassia scoparia) [27] = experiment: as above; settings: 10 days
Outline: as §1

[28] = 62 g ai/ha, postemergence, 10 days, 0 = no effect, 100 = complete control
[29] = Postemergence, 16 g ai/ha, greenhouse 10 days, 0 no effect, 100 complete control
[30] = 62 g ai/ha, 0 = no effect, 100 = complete control

`C=CC1(C(=O)NC2CC(C(=O)OC)C2)CN(c2cc(F)cc(F)c2)C(=O)O1` (stereo not shown) [Compound 173] was tested, and the “Wheat plant response rating (0-100)” value [1, 28] was 90, the “Wheat plant response rating (0 to 100 scale)” value [1, 29] was 90 and the “Blackgrass plant response rating (0-100)” value [2, 28] was 90. For the same molecule, the “Blackgrass plant response rating (0 to 100 scale)” value [2, 29] was 90, the “Galium plant response rating (0-100)” value [3, 28] was 80 and the “Galium plant response rating (0 to 100 scale)” value [3, 29] was 80. The “Ryegrass, Italian plant response rating (0-100)” value [4, 28] was 90, the “Ryegrass, Italian plant response rating (0 to 100 scale)” value [4, 29] was 80 and the “Horseweed plant response rating (0-100)” value [5, 28] was 50. The “Horseweed plant response rating (0 to 100 scale)” value [5, 29] was 0, the “Foxtail, Green plant response rating (0-100)” value [6, 28] was 90 and the “Foxtail, Green plant response rating (0 to 100 scale)” value [6, 29] was 90. The “Oat, Wild plant response rating (0-100)” value [7, 28] was 90, the “Oat, Wild plant response rating (0 to 100 scale)” value [7, 29] was 90 and the “Ragweed plant response rating (0-100)” value [8, 28] was 80. The “Ragweed plant response rating (0 to 100 scale)” value [8, 29] was 0, the “Pigweed, Palmer plant response rating (0-100)” value [9, 28] was 90 and the “Pigweed, Palmer plant response rating (0 to 100 scale)” value [9, 29] was 90. The “Soybean plant response rating (0-100)” value (soybean (Glycine max) [10]; [28]) was 50, the “Soybean plant response rating (0 to 100 scale)” value (soybean (Glycine max) [10]; [29]) was 50 and the “Corn plant response rating (0-100)” value (corn (Zea mays) [11]; [28]) was 100. For the same molecule, the “Corn plant response rating (0 to 100 scale)” value (corn (Zea mays) [11]; [29]) was 100, the “Barnyardgrass plant response rating (0-100)” value [12, 28] was 90 and the “Barnyardgrass plant response rating (0 to 100 scale)” value [12, 29] was 80. For the same molecule, the “Kochia plant response rating (0-100)” value (kochia (Bassia scoparia) [13]; [28]) was 90, the “Kochia plant response rating (0 to 100 scale)” value (kochia (Bassia scoparia) [13]; [29]) was 90 and the “Plant response rating, Sedge, Umbrella (0 to 100 scale, 0 is no effect and 100 is complete control)” value [14] was 100. The “Plant response rating, Ducksalad (0 to 100 scale, 0 is no effect and 100 is complete control)” value [15] was 95, the “Plant response rating, Barnyardgrass (0 to 100 scale, 0 is no effect and 100 is complete control)” value [16] was 90 and the “Plant response rating, Rice (0 to 100 scale, 0 is no effect and 100 is complete control)” value (rice (Oryza sativa)) was 75. The “Wheat plant response rating” value ([17]; 16 g ai/ha, 0 to 100 scale) was 90, the “Wheat plant response rating (0-100)” value [17, 30] was 100 and the “Blackgrass plant response rating” value ([18]; 16 g ai/ha, 0 to 100 scale) was 90. The “Blackgrass plant response rating (0-100)” value [18, 30] was 90, the “Ryegrass, Italian plant response rating” value ([19]; 16 g ai/ha, 0 to 100 scale) was 80 and the “Ryegrass, Italian plant response rating (0-100)” value [19, 30] was 90. For the same molecule, the “Foxtail, Green plant response rating” value ([20]; 16 g ai/ha, 0 to 100 scale) was 90, the “Foxtail, Green plant response rating (0-100)” value [20, 30] was 100 and the “Oat, Wild plant response rating” value ([21]; 16 g ai/ha, 0 to 100 scale) was 70. The “Oat, Wild plant response rating (0-100)” value [21, 30] was 90, the “Ragweed plant response rating” value ([22]; 16 g ai/ha, 0 to 100 scale) was 0 and the “Ragweed plant response rating (0-100)” value [22, 30] was 0. The “Pigweed, Palmer plant response rating” value ([23]; 16 g ai/ha, 0 to 100 scale) was 20, the “Pigweed, Palmer plant response rating (0-100)” value [23, 30] was 90 and the “Soybean plant response rating” value (soybean (Glycine max) [24]; 16 g ai/ha, 0 to 100 scale) was 30. The “Soybean plant response rating (0-100)” value (soybean (Glycine max) [24]; [30]) was 70, the “Corn plant response rating” value (corn (Zea mays) [25]; 16 g ai/ha, 0 to 100 scale) was 50 and the “Corn plant response rating (0-100)” value (corn (Zea mays) [25]; [30]) was 90. For the same molecule, the “Barnyardgrass plant response rating” value ([26]; 16 g ai/ha, 0 to 100 scale) was 40, the “Barnyardgrass plant response rating (0-100)” value [26, 30] was 100 and the “Kochia plant response rating” value (kochia (Bassia scoparia) [27]; 16 g ai/ha, 0 to 100 scale) was 10. For the same molecule, the “Kochia plant response rating (0-100)” value (kochia (Bassia scoparia) [27]; [30]) was 80.

Reference: patent US20260285850A1, “SUBSTITUTED OXAZOLIDINONES AND IMIDAZOLINONES AS HERBICIDES” (FMC CORPORATION, priority 2023, published 2026)
